What follows are compounds tested on FOG of α-DG on the cell surfaces (assay: Cell-based HTS/HCS assay, IIH6 antibody as probe (EC1.5)). Conditions: concentration of the compound required to enhance the FOG of α-DG by 50% over the controls; cell-based assays in vitro.

| SMILES | Activity (EC1.5) |
| --- | --- |
| CCC(c1nnnn1Cc1cccs1)N1CCN(c2nc3cc(N)cc(F)c3s2)CC1 (centres unmarked) [Compound 46, 5-amino-7-fluoro-2-(4-(1-(1-(thiophen-2-ylmethyl)-1H-tetrazol-5-yl)propyl)piperazin-1-yl)benzothiazole] | H (EC1.5<5 μM) |
| CCC(c1nnnn1Cc1cccs1)N1CCCN(c2nc3cc(N)cc(F)c3s2)CC1 (centres unmarked) [Compound 71, 5-amino-7-fluoro-2-(4-(1-(1-(thiophen-2-ylmethyl)-1H-tetrazol-5-yl)propyl)1,4-diazepane-1-yl)benzothiazole] | H (EC1.5<5 μM) |
| CCC(c1nnnn1Cc1cccs1)N1CCCN(c2nc3cc(N)cc(F)c3s2)CCC1 (centres unmarked) [Compound 72, 5-amino-7-fluoro-2-(5-(1-(1-(thiophen-2-ylmethyl)-1H-tetrazol-5-yl)propyl)1,5-diazocane-1-yl)benzothiazole] | H (EC1.5<5 μM) |
| CCC(c1nnnn1Cc1ccns1)N1CCN(c2nc3cc(N)cc(F)c3s2)CC1 (centres unmarked) [Compound 73, 5-amino-7-fluoro-2-(4-(1-(1-(isothiazol-5-ylmethyl)-1H-tetrazol-5-yl)propyl)piperazin-1-yl)benzothiazole] | H (EC1.5<5 μM) |
| CCC(c1nnnn1CCc1ccns1)N1CCN(c2nc3cc(N)cc(F)c3s2)CC1 (centres unmarked) [Compound 74, 5-amino-7-fluoro-2-(4-(1-(1-(isothiazol-5-ylethyl)-1H-tetrazol-5-yl)propyl)piperazin-1-yl)benzothiazole] | H (EC1.5<5 μM) |
| CCC(c1nnnn1CCc1cccs1)N1CCCN(c2nc3cc(N)cc(F)c3s2)CC1 (centres unmarked) [Compound 75, 5-amino-7-fluoro-2-(4-(1-(1-(thiophen-2-ylethyl)-1H-tetrazol-5-yl)propyl)1,4-diazepane-1-yl)benzothiazole] | H (EC1.5<5 μM) |
| CCC(c1nnnn1CCc1cccs1)N1CCCN(c2nc3cc(N)cc(F)c3s2)CC1 (centres unmarked) [Compound 76, 5-amino-7-fluoro-2-(4-(1-(1-(thiophen-2-ylethyl)-1H-tetrazol-5-yl)propyl)1,4-diazepane-1-yl)benzothiazole] | H (EC1.5<5 μM) |

Each compound was assayed on functional O-mannosylation of α-DG on cell surfaces (CHO, C2C12, HSMB, FKRPD cells) (assay: Immuno-fluorescent staining with IIH6 antibody after compound treatment (FIG. 1)). Conditions: FKRPD cells in 96 well-plates, series of concentrations, 48 hours.
Assay type: cell-based, Chinese hamster, mouse, human
Procedure: The Chinese hamster ovary (CHO), mouse myoblasts (C2C12), normal human myoblasts (HSMB), human FKRP deficient myoblasts (FKRPD) were grown in 96 well-plates and treated with the compound at a series concentrations for 48 hours. The cells were examined with immuno-fluorescent staining using the IIH6 antibody that recognize the FOG of α-DG as the primary antibody followed by an appropriate secondary antibody conjugated with fluorophore. The detailed protocol is described in experiment section below.
Protein glycosylation is a multiple-step process that requires a large number of proteins in the secretory pathway of the cells. Thus we chose cell-based assay because our goal is to identify enhancer the FOG of α-DG on the cell surfaces. The assay system is HTS/HCS friendly and can adapt to various cell lines including myotubes as well as various readout methods including AlphaScreen, fluorescence density and HCS/fluorescence imaging. The standard operation protocol (SOP) for adhesion cells is described below and the FIG. 1 illustrates the assay process using myoblasts as the controls and screening cells and the IIH6 antibody as the probe. Other adhesion cells such CHO (Chinese hamster ovary) cell line can be implemented into this assay by simply removing the differentiation step.
The cells were fixed, permeablized, and then blocked with 10% BSA in PBS for 1 hour. […]

| SMILES | enhancement of the functional O-mannosylation of α-DG on cell surfaces |
| --- | --- |
| CCC(c1nnnn1Cc1cccs1)N1CCN(c2nc3cc(N)cc(F)c3s2)CC1 (centres unmarked) [Compound 46, 5-amino-7-fluoro-2-(4-(1-(1-(thiophen-2-ylmethyl)-1H-tetrazol-5-yl)propyl)piperazin-1-yl)benzothiazole] | dose-dependent enhancement |

Reference: US10221168B1, “Small-compound enhancers for functional O-mannosylation of alpha-dystroglycan, and uses thereof” (priority 2015, dated 2019)
